Measurements from patent US20260092057A1, “BCL-XL/BCL-2 DEGRADERS AND USES THEREOF” (Kymera Therapeutics, Inc., priority 2022, published 2026).

Tests used:
Format in all cases: cell-based
Caki-2 cells = experiment: CTG (CellTiter-Glo) cell viability assay, Caki-2; conditions: Homo sapiens, CAKI-2, 72 h, Caki-2, 3-day; read-out: CTG Chempartner/PHA- Caki-2 3-day: Average external-IC50
Summary of the method: (§1)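 Viability read by CellTiter-Glo luminescence after 3 days' compound exposure at 37 °C under 5% CO2, with 10,000 cells per well. Dosing was nine 1:3 dilutions starting at 10 µM, DMSO normalized to 0.2%; IC50 values come from three-parameter logistic curve fitting.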

MOLT-4 cells = experiment: CTG (CellTiter-Glo) cell viability assay, MOLT-4; conditions: Homo sapiens, MOLT-4, 72 h, MOLT-4, 3 day; read-out: CTG Cell Viability Assay - MOLT-4 3 day: Average external-IC50
Summary of the method: as §1

BCL-XL = target: T1, BCL-XL (Homo sapiens, UniProt Q07817); experiment: BCL-XL degradation assay in MOLT-4 cells (ELISA, 6 h); conditions: for DC50: read-out: Bcl-xL ELISA in MOLT-4 degradation 6 h: External Abs-DC50
T1 construct: BCL-XL degradation results in MOLT-4 cells for compounds of the invention; endogenous in cells; host or cells: MOLT-4
T1 sequence (Q07817 whole entry): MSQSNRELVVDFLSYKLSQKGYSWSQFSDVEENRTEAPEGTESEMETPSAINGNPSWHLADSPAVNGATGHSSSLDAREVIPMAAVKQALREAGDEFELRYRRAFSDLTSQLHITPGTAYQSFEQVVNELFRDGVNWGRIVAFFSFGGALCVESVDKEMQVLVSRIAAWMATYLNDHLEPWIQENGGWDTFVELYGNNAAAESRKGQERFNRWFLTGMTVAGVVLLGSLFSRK

IC50 (MOLT-4 cells) [µM] | Dmax (BCL-XL) [%] | DC50 (BCL-XL) [µM] | SMILES | IC50 (Caki-2 cells) [µM]
0.1 to 1 | < 50 | 0.5 to 1 | Cc1ncsc1-c1ccc([C@H](C)NC(=O)[C@@H]2C[C@@H](O)CN2C(=O)[C@@H](NC(=O)CCCCCC(=O)N2CCN(CCCNc3ccc(S(=O)(=O)NC(=O)c4ccc(N5CCN(CC6=C(c7ccc(Cl)cc7)CC(C)(C)CC6)CC5Oc5cnc6[nH]ccc6c5)cc4)cc3S(=O)(=O)C(F)(F)F)CC2)C(C)(C)C)cc1 (stereo partly shown) [I-133] | > 30
1 to 3 | 50 to 75 | 0.1 to 0.5 | Cc1ncsc1-c1ccc([C@H](C)NC(=O)[C@@H]2C[C@@H](O)CN2C(=O)[C@@H](NC(=O)CCCCCC(=O)N2CCN(CCCNc3ccc(S(=O)(=O)NC(=O)c4ccc(N5CCN(Cc6ccccc6-c6ccc(Cl)cc6)CC5)cc4Oc4cnc5[nH]ccc5c4)cc3S(=O)(=O)C(F)(F)F)CC2)C(C)(C)C)cc1 [I-51] | > 30
< 0.1 | > 75 | 0.01 to 0.1 | Cc1ncsc1-c1ccc([C@H](C)NC(=O)[C@@H]2C[C@@H](O)CN2C(=O)[C@@H](NC(=O)CCCCCC(=O)N2CCN(CC[C@H](CSc3ccccc3)Nc3ccc(S(=O)(=O)NC(=O)c4ccc(N5CCC([C@@H](O)c6ccccc6-c6ccc(Cl)cc6)CC5)cc4)cc3S(=O)(=O)C(F)(F)F)CC2)C(C)(C)C)cc1 [I-28, (2S,4R)-1-((S)-2-(7-(4-((R)-3-((4-(N-(4-(4-((R)-(4′-chloro-[1,1′-biphenyl]-2-yl)(hydroxy)methyl)piperidin-1-yl)benzoyl)sulfamoyl)-2-((trifluoromethyl)sulfonyl)phenyl)amino)-4-(phenylthio)butyl)piperazin-1-yl)-7-oxoheptanamido)-3,3-dimethylbutanoyl)-4-hydroxy-N—((S)-1-(4-(4-methylthiazol-5-yl)phenyl)ethyl)pyrrolidine-2-carboxamide] | 10 to 30
< 0.1 | 50 to 75 | 0.01 to 0.1 | Cc1ncsc1-c1ccc([C@H](C)NC(=O)[C@@H]2C[C@@H](O)CN2C(=O)[C@@H](NC(=O)CCCCCCC(=O)N2CCN(CC[C@H](CSc3ccccc3)Nc3ccc(S(=O)(=O)NC(=O)c4ccc(N5CCC([C@@H](O)c6ccccc6-c6ccc(Cl)cc6)CC5)cc4)cc3S(=O)(=O)C(F)(F)F)CC2)C(C)(C)C)cc1 [I-120] | 10 to 30
0.1 to 1 | 50 to 75 | 0.1 to 0.5 | Cc1ncsc1-c1ccc([C@H](C)NC(=O)[C@@H]2C[C@@H](O)CN2C(=O)[C@@H](NC(=O)CCCCCC(=O)N2CCN(CCCNc3ccc(S(=O)(=O)NC(=O)c4ccc(N5CCC([C@H](O)c6ccccc6-c6ccc(Cl)cc6)CC5)cc4Oc4cnc5[nH]ccc5c4)cc3S(=O)(=O)C(F)(F)F)CC2)C(C)(C)C)cc1 (single isomer, unassigned) [I-38] | > 30
0.1 to 1 | > 75 | 0.01 to 0.1 | Cc1ncsc1-c1ccc([C@H](C)NC(=O)[C@@H]2C[C@@H](O)CN2C(=O)[C@@H](NC(=O)CCCCCC(=O)N2CCN(CCCNc3ccc(S(=O)(=O)NC(=O)c4ccc(N5CCN(CC6=C(c7ccc(Cl)cc7)CC(C)(C)CC6)CC5)cc4Oc4cnc5[nH]ccc5c4)cc3S(=O)(=O)C(F)(F)F)CC2)C(C)(C)C)cc1 [I-22, (2S,4R)-1-((S)-2-(7-(4-(3-((4-(N-(2-((1H-pyrrolo[2,3-b]pyridin-5-yl)oxy)-4-(4-((4′-chloro-5,5-dimethyl-3,4,5,6-tetrahydro-[1,1′-biphenyl]-2-yl)methyl)piperazin-1-yl)benzoyl)sulfamoyl)-2-((trifluoromethyl)sulfonyl)phenyl)amino)propyl)piperazin-1-yl)-7-oxoheptanamido)-3,3-dimethylbutanoyl)-4-hydroxy-N—((S)-1-(4-(4-methylthiazol-5-yl)phenyl)ethyl)pyrrolidine-2-carboxamide] | 10 to 30
> 3 | – | – | Cc1ncsc1-c1ccc([C@H](C)NC(=O)[C@@H]2C[C@@H](O)CN2C(=O)[C@@H](NC(=O)CCCCCN(C)CCCNc2ccc(S(=O)(=O)NC(=O)c3ccc(N4CCC([C@@H](O)c5ccccc5-c5ccc(Cl)cc5)CC4)cc3Oc3cnc4[nH]ccc4c3)cc2S(=O)(=O)C(F)(F)F)C(C)(C)C)cc1 [I-66] | > 30
> 3 | – | – | Cc1ncsc1-c1ccc([C@H](C)NC(=O)[C@@H]2C[C@@H](O)CN2C(=O)[C@@H](NC(=O)CCCCCC(=O)N[C@@H]2CCN(CCCNc3ccc(S(=O)(=O)NC(=O)c4ccc(N5CCN(CC6=C(c7ccc(Cl)cc7)CC(C)(C)CC6)CC5)cc4Oc4cnc5[nH]ccc5c4)cc3S(=O)(=O)C(F)(F)F)C2)C(C)(C)C)cc1 [I-95] | > 30

Continued, compound first:

SMILES | IC50 (MOLT-4 cells) [µM] | Dmax (BCL-XL) [%] | DC50 (BCL-XL) [µM] | IC50 (Caki-2 cells) [µM]
Cc1ncsc1-c1ccc([C@H](C)NC(=O)[C@@H]2C[C@@H](O)CN2C(=O)[C@@H](NC(=O)CCCCCCCCN2CCN(Cc3ccc(-c4ccc(Cl)cc4)c(CN4CCN(c5ccc(C(=O)NS(=O)(=O)c6ccc(N[C@H](CCN(C)C)CSc7ccccc7)c([N+](=O)[O-])c6)cc5)CC4)c3)CC2)C(C)(C)C)cc1 [I-9] | > 3 | < 50 | 0.5 to 1 | > 30
Cc1ncsc1-c1ccc([C@H](C)NC(=O)[C@@H]2C[C@@H](O)CN2C(=O)[C@@H](NC(=O)C2CCN(c3ccc(NC(=O)c4ccc(-c5ccc(Cl)cc5)c([C@H](O)C5CCN(c6ccc(C(=O)NS(=O)(=O)c7ccc(N[C@H](CCN(C)CCO)CSc8ccccc8)c(S(=O)(=O)C(F)(F)F)c7)cc6)CC5)c4)cc3)CC2)C(C)(C)C)cc1 (single isomer, unassigned) [I-27] | > 3 | < 50 | 0.5 to 1 | > 30
Cc1ncsc1-c1ccc([C@H](C)NC(=O)[C@@H]2C[C@@H](O)CN2C(=O)[C@@H](NC(=O)CCCCCC(=O)N2CCN(CC[C@H](CSc3ccccc3)Nc3ccc(S(=O)(=O)NC(=O)c4ccc(N5CCN(Cc6ccccc6-c6ccc(Cl)cc6)CC5)cc4)cc3[N+](=O)[O-])CC2)C(C)(C)C)cc1 [I-35] | > 3 | > 75 | 0.01 to 0.1 | > 30
C#Cc1ccc([C@H](C)NC(=O)[C@@H]2C[C@@H](O)CN2C(=O)[C@@H](NC(=O)CCCCCC(=O)N2CCN(CCCNc3ccc(S(=O)(=O)NC(=O)c4ccc(N5CCN(CC6=C(c7ccc(Cl)cc7)CC(C)(C)CC6)CC5)cc4Oc4cnc5[nH]ccc5c4)cc3S(=O)(=O)C(F)(F)F)CC2)C(C)(C)C)cc1 [I-85] | 0.1 to 1 | < 50 | 0.5 to 1 | > 30
Cc1ncsc1-c1ccc([C@H](C)NC(=O)[C@@H]2C[C@@H](O)CN2C(=O)[C@@H](NC(=O)CCCCCCC(=O)N2CCN(Cc3ccc(-c4ccc(Cl)cc4)c(CN4CCN(c5ccc(C(=O)NS(=O)(=O)c6ccc(N[C@H](CCN(C)C)CSc7ccccc7)c([N+](=O)[O-])c6)cc5)CC4)c3)CC2)C(C)(C)C)cc1 [I-5] | 0.1 to 1 | > 75 | 0.01 to 0.1 | > 30
Cc1ncsc1-c1ccc([C@H](C)NC(=O)[C@@H]2C[C@@H](O)CN2C(=O)[C@@H](NC(=O)CCCCCCNC(=O)c2ccc(-c3ccc(Cl)cc3)c(CN3CCN(c4ccc(C(=O)NS(=O)(=O)c5ccc(N[C@H](CCN(C)C)CSc6ccccc6)c([N+](=O)[O-])c5)cc4)CC3)c2)C(C)(C)C)cc1 [I-11] | > 3 | < 50 | 0.5 to 1 | > 30
Cc1ncsc1-c1ccc([C@H](C)NC(=O)[C@@H]2C[C@@H](O)CN2C(=O)[C@@H](NC(=O)C2CCN(c3ccc(NC(=O)c4ccc(-c5ccc(Cl)cc5)c(CN5CCN(c6ccc(C(=O)NS(=O)(=O)c7ccc(N[C@H](CCN(C)C)CSc8ccccc8)c([N+](=O)[O-])c7)cc6)CC5)c4)cc3)CC2)C(C)(C)C)cc1 [I-21] | > 3 | < 50 | 0.5 to 1 | > 30
Cc1ncsc1-c1ccc([C@H](C)NC(=O)[C@@H]2C[C@@H](O)CN2C(=O)[C@@H](NC(=O)CCCCCCCC(=O)N2CCN(Cc3ccc(-c4ccc(Cl)cc4)c(CN4CCN(c5ccc(C(=O)NS(=O)(=O)c6ccc(N[C@H](CCN(C)C)CSc7ccccc7)c([N+](=O)[O-])c6)cc5)CC4)c3)CC2)C(C)(C)C)cc1 [I-8] | 0.1 to 1 | 50 to 75 | 0.1 to 0.5 | > 30
C#Cc1ccc([C@H](C)NC(=O)[C@@H]2C[C@@H](O)CN2C(=O)[C@@H](NC(=O)CCCCCC(=O)N2CCN(CC[C@H](CSc3ccccc3)Nc3ccc(S(=O)(=O)NC(=O)c4ccc(N5CCC([C@@H](O)c6ccccc6-c6ccc(Cl)cc6)CC5)cc4)cc3S(=O)(=O)C(F)(F)F)CC2)C(C)(C)C)cc1 (single isomer, unassigned) [I-29] | 0.1 to 1 | > 75 | 0.01 to 0.1 | 10 to 30
Cc1ncsc1-c1ccc([C@H](C)NC(=O)[C@@H]2C[C@@H](O)CN2C(=O)[C@@H](NC(=O)CCCCCC(=O)N2CCN(CC[C@H](CSc3ccccc3)Nc3ccc(S(=O)(=O)NC(=O)c4ccc(N5CCN(CC6=C(c7ccc(Cl)cc7)CC(C)(C)CC6)CC5)cc4)cc3S(=O)(=O)C(F)(F)F)CC2)C(C)(C)C)cc1 [I-42] | < 0.1 | > 75 | 0.01 to 0.1 | 5 to 10
C#Cc1ccc([C@H](CO)NC(=O)[C@@H]2C[C@@H](O)CN2C(=O)[C@@H](NC(=O)CCCCCC(=O)N2CCN(CC[C@H](CSc3ccccc3)Nc3ccc(S(=O)(=O)NC(=O)c4ccc(N5CCN([C@@H](O)c6ccccc6-c6ccc(Cl)cc6)CC5)cc4)cc3S(=O)(=O)C(F)(F)F)CC2)C(C)(C)C)cc1 [I-135] | < 0.1 | > 75 | 0.01 to 0.1 | 10 to 30
Cc1ncsc1-c1ccc([C@H](C)NC(=O)[C@@H]2C[C@@H](O)CN2C(=O)[C@@H](NC(=O)CCCCCC(=O)N2CCN(CC[C@H](CSc3ccccc3)Nc3ccc(S(=O)(=O)NC(=O)c4ccc(NC5CCOCC5)cc4)cc3S(=O)(=O)C(F)(F)F)CC2)C(C)(C)C)cc1 [I-39] | > 3 | 50 to 75 | 0.1 to 0.5 | > 30
